SMILES strings stand for the structures.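 In this assay, cells in 96-well plates receive the compound at five concentrations for 48 hours. Endpoints are linearly interpolated between the surrounding concentrations. TGI: concentration producing complete growth inhibition.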

Among the test systems are A498 renal; COLO 205 colon; K-562 leukemia; NCI-H226 lung; OVCAR-5 ovarian; SF-268 CNS; SK-OV-3 ovarian; SNB-75 CNS; SR leukemia; TK-10 renal; HOP-92 NSCLC.
Holding throughout (assay): NCI anticancer screen, dose series, 48 h

In the case of `COC(=O)C(CCC1(C)OCCO1)=[N+]=[N-]`, the TGI in the assay with A498 renal, in the assay with COLO 205 colon, in the assay on K-562 leukemia, in the assay on NCI-H226 lung, in the assay on OVCAR-5 ovarian and in the assay with SF-268 CNS was greater than 100 µM each time. The TGI with SK-OV-3 ovarian, in the assay with SNB-75 CNS, with SR leukemia and in the assay with TK-10 renal was greater than 100 µM in each case.
With `CCNC(=S)NNC(=O)c1ccccc1Nc1ccccc1C(=O)NNC(=S)NCC`, the TGI with COLO 205 colon, in the assay with HOP-92 NSCLC, in the assay on K-562 leukemia, in the assay on NCI-H226 lung, with OVCAR-5 ovarian and in the assay on SK-OV-3 ovarian was greater than 100 µM each time. Besides, the TGI with SNB-75 CNS, in the assay on SR leukemia and in the assay with TK-10 renal was greater than 100 µM throughout.
In the case of `O=S(=O)(c1ccccc1)c1ccc(-c2nc(-c3ccc4c(c3)Sc3ccccc3S4)cs2)cc1`, the TGI in the assay on COLO 205 colon was greater than 100 µM; in the assay on HOP-92 NSCLC, 62.9 µM; in the assay on K-562 leukemia it was greater than 100 µM; with NCI-H226 lung, greater than 100 µM; with OVCAR-5 ovarian, greater than 100 µM; in the assay on SF-268 CNS, greater than 100 µM. Further, the TGI in the assay with SK-OV-3 ovarian is 41.9 µM; in the assay on SNB-75 CNS, 25.3 µM; in the assay with SR leukemia it was greater than 100 µM; in the assay with TK-10 renal, 73.6 µM.
Take `CC(=O)NC(C)(C)C1CCC(C)CC1` (stereo unspecified): the TGI in the assay on A498 renal, in the assay with COLO 205 colon, in the assay with K-562 leukemia, in the assay on NCI-H226 lung, in the assay on OVCAR-5 ovarian and in the assay on SF-268 CNS was greater than 100 µM in each case. In addition, the TGI in the assay with SK-OV-3 ovarian, in the assay with SNB-75 CNS, in the assay with SR leukemia and in the assay on TK-10 renal was greater than 100 µM each time.
In the case of `CSc1nc(NCc2ccccc2)c2cnn(COCCO)c2n1`, the TGI is 85.7 µM in the assay on COLO 205 colon; greater than 100 µM in the assay with HOP-92 NSCLC; greater than 100 µM in the assay with K-562 leukemia; greater than 100 µM in the assay with NCI-H226 lung; greater than 100 µM with OVCAR-5 ovarian; greater than 100 µM in the assay with SF-268 CNS. Further, the TGI in the assay on SK-OV-3 ovarian was greater than 100 µM; in the assay with SNB-75 CNS, 53.6 µM; with SR leukemia, greater than 100 µM; in the assay with TK-10 renal, greater than 100 µM.
In the case of `CCCCCCCCCCCC[N+]12CC[N+](C)(CC1)CC2`, the TGI in the assay on COLO 205 colon turned out to be 16.9 µM; with HOP-92 NSCLC, 47.7 µM; with K-562 leukemia, 53.2 µM; in the assay on NCI-H226 lung it was 66.5 µM; in the assay with OVCAR-5 ovarian, 41 µM; in the assay on SF-268 CNS, 53.3 µM. The TGI in the assay on SK-OV-3 ovarian is greater than 100 µM; in the assay with SNB-75 CNS it was 37.1 µM; in the assay on SR leukemia it was 26.7 µM; with TK-10 renal, 5.6 µM.
As for `CNC(=O)CNC(=O)N(C[C@@H]1CCCN1C(=O)[C@H](CC(C)C)NC(=O)OC(C)(C)C)C(C)C`, the TGI with A498 renal, in the assay on COLO 205 colon, in the assay on K-562 leukemia, in the assay with NCI-H226 lung, with OVCAR-5 ovarian and in the assay on SF-268 CNS was greater than 100 µM throughout. Moreover, the TGI in the assay on SK-OV-3 ovarian, with SNB-75 CNS and in the assay on SR leukemia was greater than 100 µM each time.
On to `Brc1ccc(-c2cc3c(cc2C2SCCS2)OCO3)cc1`, for which the TGI in the assay on A498 renal is 93.3 µM; in the assay on COLO 205 colon it was greater than 100 µM; with K-562 leukemia, greater than 100 µM; with NCI-H226 lung it was 40.3 µM; with OVCAR-5 ovarian it was greater than 100 µM; in the assay with SF-268 CNS, greater than 100 µM. Moreover, the TGI is greater than 100 µM in the assay with SK-OV-3 ovarian, 39.9 µM with SNB-75 CNS, 86.9 µM in the assay on SR leukemia and greater than 100 µM in the assay with TK-10 renal.
Consider `CCN(C(=O)N[C@H](C(=O)N[C@@H](CSC)C(=O)N[C@@H](C)C(=O)OC)C(C)C)c1ccccc1`, for which the TGI in the assay on COLO 205 colon is 32.4 µM; with HOP-92 NSCLC it was 26.3 µM; in the assay with K-562 leukemia, greater than 100 µM; in the assay with NCI-H226 lung it was 31.8 µM; with OVCAR-5 ovarian, 29.5 µM; with SK-OV-3 ovarian, 30.7 µM. Moreover, the TGI worked out at 27.8 µM in the assay on SNB-75 CNS, 18.2 µM in the assay on SR leukemia and 26.4 µM in the assay on TK-10 renal.
`Cc1ccc(Nc2nc(-c3ccc(-c4ccc([N+](=O)[O-])cc4)o3)cs2)cc1`: the TGI in the assay on COLO 205 colon, in the assay on HOP-92 NSCLC, in the assay on K-562 leukemia, in the assay with NCI-H226 lung, in the assay with OVCAR-5 ovarian and with SF-268 CNS was greater than 100 µM throughout. Further, the TGI in the assay on SK-OV-3 ovarian, with SNB-75 CNS, in the assay with SR leukemia and in the assay on TK-10 renal was greater than 100 µM in each case.
As for `Cc1nc2ccc(NC3OCC(O)C(O)C3O)cc2c(=O)n1-c1ccccc1` (stereo unspecified), the TGI in the assay on A498 renal, in the assay with COLO 205 colon, in the assay with K-562 leukemia, in the assay with NCI-H226 lung, in the assay with OVCAR-5 ovarian and in the assay on SF-268 CNS was greater than 100 µM throughout. Further, the TGI with SNB-75 CNS, with SR leukemia and in the assay on TK-10 renal was greater than 100 µM each time.

Values taken from PubChem BioAssay (NCI).
